Measured values as given in patent US20260132128A1, “COMPOUND FOR RECOVERING P53 MUTATION FUNCTION AND USE THEREOF” (SHENZHEN ZHONGGE BIOLOGICAL TECHNOLOGY CO., LTD., priority 2022, published 2026).
pEC50: −log10 of the molar value. Like-named read-outs stand apart in the source and are kept apart here. Marks after values point to notes of the source that are not given here.

Experiments:
[1] = test system: NUGC-3 cells; assay: NUGC-3 cell proliferation assay (CTG); format: cell-based, human; details: for GI50: Homo sapiens, NUGC-3, 144 h, 6 days, CTG; for Compound GI50 (nM)/Reference compound GI50 (nM): multiple ratio of GI50 of the compound to the reference compound
In short: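 NUGC-3 cells (250/well), plated overnight, were exposed 6 days at 37° C to compound, 10 doses of 1:3 dilutions from 10 μM top final. Viability by CellTiter-Glo luminescence; inhibition relative to 0.1% DMSO and blank, GI50 from variable-slope nonlinear fit.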

[2] = target: T1, p53 Y220C (Homo sapiens, UniProt P04637, P309S/R273H/Y220C); assay: DNA binding test (HTRF): binding of P53Y220C protein to DNA; format: biochemical; details: HTRF, activation of p53 Y220C (aa 94-312) binding to biotin DNA
T1 construct: a truncated mutant containing only amino acids 94-312 of p53; made in house; host or cells: E. coli

[3] = target: T2, p53 Y220C (Homo sapiens, UniProt P04637, Y220C); assay: as above; format: biochemical; details: multiple ratio of EC50 of the compound to the reference compound, DNA binding test
T2 construct: a truncated mutant containing only amino acids 94-312 of p53; made in house; host or cells: E. coli

[4] = Pharmacokinetic test in mice; format: in vivo; details: male, ICR, mouse, plasma
Description: ICR male mice (15 to 35 g, 5 to 10 weeks old, Shanghai Xipuer-Bikai Experimental Animal Co., Ltd.) were selected as test animals in this study. The LC-MS/MS method was used to quantitatively determine drug concentrations in the plasma of mice at different time points after intravenous injection or oral gavage administration of the test compound to evaluate the pharmacokinetic characteristics of the compound in mice. The clear solution of the test compound was injected into ICR mice via the tail vein (without fasting, solvent: 40% hydroxypropyl-β-cyclodextrin) and administered to ICR mice by oral gavage (fasting for 10 to 14 hours, free drinking water, solvent: 0.2% hydroxypropyl cellulose, 0.5% Tween 80). For intravenous administration, blood was collected from the submandibular venous plexus at 0.033, 0.083, 0.25, 0.5, 1, 2, 4, 8, and 24 hours after administration, placed in an anticoagulant tube with EDTA-K2 (Jiangsu Kangjian Medical Supplies Co., Ltd.), mixed, and centrifuged at 2-8° C., 6800 g for 6 minutes to obtain plasma; for oral gavage administration, blood was collected from the submandibular venous plexus at 0.083, 0.25, 0.5, 1, 2, 4, 6, 8, and 24 hours after administration, placed in an anticoagulant tube with EDTA-K2 (Jiangsu Kangjian Medical Supplies Co., Ltd.), mixed, and centrifuged at 2-8° C., 6800 g for 6 minutes to obtain plasma. The blood drug concentration was determined by LC-MS/MS, and the relevant pharmacokinetic parameters were calculated by the non-compartmental linear logarithmic trapezoidal method using Phoenix WinNonlin™ Version 7.0 (Pharsight, USA) pharmacokinetic software.

[5] = target: T3, CYP 3A4 (Homo sapiens, UniProt P08684); assay: CYP 3A4 time-dependent inhibition test; format: in vitro ADME; details: midazolam substrate
T3 construct: purchased BioIVT X008067
Description: CYP 3A4 and the test compound or mifepristone of various concentrations were added to a 96-deep well plate for pre-incubation. The plate was placed in a water bath and preheated at 37° C. for 5 min. For the 0 min pre-incubation samples, midazolam substrate was added to the incubation plate, then 10 mM NADPH solution was added, and the reaction was carried out in a 37° C. water bath for 5 min; for the 30 min pre-incubation samples with NADPH, 10 mM NADPH solution was added to the incubation plate, pre-incubated in a 37° C. water bath for 30 min, and then midazolam substrate was added and reacted in a 37° C. water bath for 5 min; for the 30 min pre-incubation samples without NADPH, the incubation plate was pre-incubated in a 37° C. water bath for 30 min, then midazolam substrate was added, 10 mM NADPH solution was added, and the reaction was carried out in a 37° C. water bath for 5 min. After the reaction was completed, the quenching solution (500 nM tolbutamide (Bide Pharmaceuticals, Cat. No. BD154332) and 10 nM terfenadine (Sigma, Cat. No. T96532)) were added to quench the reaction, and the plate was centrifuged at 3,220 g for 40 min at 4° C. The supernatant was pipetted into a new plate, the supernatant was diluted with pure water and mixed well, and the sample was analyzed using UPLC-MS/MS.

[6] = test system: BxPC-3 cells; assay: BxPC-3 cell proliferation test (CTG); format: cell-based; details: Homo sapiens, 144 h, 6 days
Description: To detect the inhibitory effects of the aforementioned compounds on the proliferation ability of BxPC-3 cells, 125 BxPC-3 cells (ATCC®CRL-1687) were seeded into a 384-well plate (Corning 3765), 35 μL per well, and placed in a constant temperature incubator at 37° C. and 5% CO2 overnight. Then, 40 nL of the compound was added to the 384-well plate using an Echo 655 Liquid Handler, with a maximum final concentration of 10 μM, 1:3 serial dilution, and in a total of 10 doses. Incubation was performed at 37° C., 5% CO2 for 6 days. The plate was taken out from the incubator and equilibrated at room temperature for 10 minutes. 20 μL of CTG (Promage G7572) was added to each well of the plate according to the platemap. The plate was centrifuged at 1000 rpm for 1 minute. The lysis of cells was induced by mixing on a shaker for 2 minutes. The plate was centrifuged at 1000 rpm for 1 minute. Incubation was performed at room temperature for 10 minutes to stabilize luminescence signals. Luminescence values were recorded by Envision (PerkinElmer 2105-0020). GraphPad 9.0 was used to fit the inhibition rate and compound concentration into a nonlinear regression curve (dose response-variable slope) to calculate GI50, inhibition rate={1−(A−B)/(C−B)}*100%, A=signal value of compound; B=average signal of blank control; C=average signal of negative control (wherein the negative control was 0.1% DMSO).

[7] = Liver microsome stability test, human (HLM); format: in vitro ADME; details: human liver microsomes, NADPH; read-out: T1/2 (min) Human
Description: (§1) The 10 mM test compound/ketanserin (Energy Chemical, Cat. No. E020711) stock solution was diluted with acetonitrile to 0.5 mM compound/reference compound. The frozen 100 mM NADPH (MCE, Cat. No. HYF003/CS-4998) was diluted with phosphate buffer solution to a concentration of 6 mM; 20 mg/mL HLM (BioIVT, Cat. No. X008067) or MLM (BioIVT, Cat. No. M00501) was diluted with phosphate buffer solution to a concentration of 0.75 mg/ml, and added to a 96-round well plate, respectively, and shaken evenly on an oscillator at 600 rpm. The above oscillated samples were pipetted 3 times with an electric pipettor and dispensed into a new 96-well plate (containing NADPH group (n=2), NADPH-free group was added at 0 and 45 min (n=1)), and there were a total of 5 groups of 0, 5, 15, 30 and 45 min, respectively. After pre-incubation of the 5 groups of samples at 37° C. for 5 min, glacial acetonitrile was quickly added to the 0 min group for precipitation, and after rapid vortexing, K-Buffer or NADPH was added with an electric pipettor. The remaining groups were sequentially added with 6 mM NADPH to start the reaction in the order of 45, 30, 15 and 5 min samples, and K-Buffer solution was added to the NADPH-free group. After mixing at 1000 rpm in an oscillating mixer for 10 s, they were continuously incubated at 37° C. for the corresponding time. The reaction was terminated by quickly adding glacial acetonitrile internal standard using an electric pipettor; after vortexing at 900 rpm for 10 seconds, heat sealing was performed, oscillation was performed on an oscillator for 10 minutes, centrifugation was performed at 4000 rpm for 50 minutes, the supernatant was collected and diluted with pure water, and the test compound and the reference compound were quantified by LC-MS/MS analysis.

[8] = Liver microsome stability test, mouse (MLM); format: in vitro ADME; details: mouse liver microsomes, NADPH; read-out: T1/2 (min) Mouse
Description: as §1

[9] = Caco-2 cell permeability test; format: in vitro ADME; details: human, pH 7.4, Caco-2, 10 μM
Description: Caco-2 cells (ATCC, Cat. No. HTB-37) were inoculated to a 96-well plate (Corning HTS Transwell, Cat. No. 3391) at 1.25×10^5/cm2, and the culture medium (DMEM+10% FBS+1% Penicillin-Streptomycin Liquid (100×)+1% NEAA) was replaced every 3 to 4 days. The plate was placed in an incubator at 37° C. with 5% CO2 until a confluent cell monolayer was formed after 21 to 28 days. Before the transport experiment, the culture medium was removed from the cell culture plate, and the plate was washed twice with pre-warmed HBSS buffer (10 mM HEPES, pH 7.4), and 100 μL of HBSS buffer was added to each well. After incubation at 37° C. for 30 minutes, the TEER value was measured using a cell resistance meter (Millicell-ERS2) to confirm the integrity and density of the monolayer cells. The HBSS buffer was discarded, the upper plate containing the cell monolayer membrane was transferred to the corresponding receiving plate, 10 mM test compound stock solution was diluted to a concentration of 10 μM with HBSS transport buffer containing 0.5% BSA, and it was added to the apical side (A side) and basolateral side (B side), respectively. Incubation was carried out for 120 min at 37° C., 5% CO2, and 95% relative humidity, and the permeation of the test compound from A side to B side or from B side to A side and the efflux rate of the compound were determined. The test compound and the reference compound were quantified by LC-MS/MS analysis based on the peak area ratio of analyte/internal standard. The apparent permeability coefficient Papp (cm/s) was calculated using the following formula:
[formula] • wherein, dCr/dt represented the functional relation between cumulative concentration of compound in receptor compartment and time; V represented the volume of solution in receptor compartment (0.1 mL at apical side, and 0.25 mL at basolateral side); A represented the transport surface area, i.e., the monolayer cell area was 0.0804 cm^2; CO represented the initial concentration of compound in donor compartment.
The efflux ratio was calculated using the following formula: […]
The percent recovery was calculated using the following formula:
[formula] [formula] • wherein, Vd represented the volume of donor compartment (0.1 mL on the apical side and 0.25 mL on the basolateral side); C and Cr represented the final concentrations of the transported compound in the donor and receptor compartment, respectively; Cc represented the compound concentration in cell lysate; Vc represented the volume of insert well (which was 0.1 mL in this experiment).

[10] = 0 min pre-incubation, read-out: IC50 (μM) 0 min
[11] = 30 min pre-incubation with NADPH, read-out: IC50 (μM) 30 min, with NADPH
[12] = 30 min pre-incubation without NADPH, read-out: IC50 (μM) 30 min, without NADPH

T3 sequence (P08684 whole entry): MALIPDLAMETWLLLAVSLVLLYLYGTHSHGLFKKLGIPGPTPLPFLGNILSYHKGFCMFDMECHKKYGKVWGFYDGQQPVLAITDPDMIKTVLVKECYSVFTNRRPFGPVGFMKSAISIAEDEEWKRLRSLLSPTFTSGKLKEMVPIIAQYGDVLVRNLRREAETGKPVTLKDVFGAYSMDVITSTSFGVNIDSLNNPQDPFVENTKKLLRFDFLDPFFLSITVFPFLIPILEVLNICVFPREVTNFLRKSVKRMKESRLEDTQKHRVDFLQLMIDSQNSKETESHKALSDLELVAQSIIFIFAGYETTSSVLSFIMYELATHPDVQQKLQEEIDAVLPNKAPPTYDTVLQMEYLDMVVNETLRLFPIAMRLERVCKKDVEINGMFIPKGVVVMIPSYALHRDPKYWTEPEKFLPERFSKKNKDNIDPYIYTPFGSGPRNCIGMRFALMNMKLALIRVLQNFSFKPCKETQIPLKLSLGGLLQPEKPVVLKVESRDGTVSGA

Compound	GI50 [1] [µM]	Compound GI50 (nM)/Reference compound GI50 (nM) [1]	pEC50 [2]	Compound EC50 (nM)/Reference compound EC50 (nM) [3]	AUC ([4]; 25 mg/kg, po 25 mpk) [ng·h/mL]	Cmax ([4]; 25 mg/kg, po 25 mpk) [ng/mL]	clearance ([4]; 2.5 mg/kg, iv 2.5 mpk) [mL/min/kg]	IC50 [5, 10] [µM]	IC50 [5, 11] [µM]	IC50 [5, 12] [µM]	GI50 [6] [µM]	half-life [7] [min]	half-life [8] [min]	efflux ratio at 120 min, 10 μM [9]	Papp A→B at 120 min, 10 μM ([9]; A to B) [×10⁻⁶ cm/s]	Papp B→A at 120 min, 10 μM ([9]; B to A) [×10⁻⁶ cm/s]
[2H]C([2H])([2H])NC(=O)c1ccc(NCC#Cc2nc3c(NC4CCC(N5CCOCC5)CC4F)cccn3c2CC(F)(F)F)c(OC([2H])([2H])[2H])c1 (single isomer, unassigned) [Compound 70d]	< 1	A (A: GI50 of the compound ≤ GI50 of the reference compound)	> 7.00	A (A: EC50 of the compound≤EC50 of the reference compound)	59700	13100	11	5.95	1.91	6.65						
CNC(=O)c1ccc(NCC#Cc2cc3c(NC4CCC(N5CC6(COC6)C5)CC4F)cccn3c2CC(F)(F)F)c(OC)c1 (single isomer, unassigned) [Compound 65d]	< 1	B (B: GI50 of the reference compound < GI50 of the compound ≤ 3.0 * GI50 of the reference compound)	> 7.00	B (B: EC50 of the reference compound<EC50 of the compound≤3.0*EC50 of the reference compound)							< 1	65.3	16.9			
CNC(=O)c1ccc(NCC#Cc2nc3c(NC4CC[C@@H](N5CC6(COC6)C5)C[C@@H]4F)cccn3c2CC(F)(F)F)c(OC2CC2)c1 (stereo partly shown) [Compound 57]		B (B: GI50 of the reference compound < GI50 of the compound ≤ 3.0 * GI50 of the reference compound)		B (B: EC50 of the reference compound<EC50 of the compound≤3.0*EC50 of the reference compound)							< 1			1.84	3.7	6.82
CNC(=O)c1ccc(NCC#Cc2cc3c(N[C@@H]4CCN(C)C[C@@H]4F)cccc3n2CC(F)(F)F)c(OC)c1 [Reference compound, reference compound]								3.24	0.58	2.55		24.9	17.1			
